pIC50: −log10 of the molar value. Where two headings read alike, the source gives them in different places. Each block holds one compound with its values, some of them ahead of it.
Columns and labels:
KGN cells = assay: TGFβ induced proliferation, KGN; assay type: cell-based, human; settings: TGFβ 1 ng/mL, 6 days, KGN (FoxL2 mutant)
Description: (§1) KGN and COV434 cells were seeded in triplicate in 96 well culture plates and incubated in the presence or absence of TGFβ (1 ng/mL) for 6 or 7 days, respectively. Proliferation was measured by Cell Titer Glo.

COV434 cells = assay: TGFβ induced proliferation, COV434; assay type: cell-based, human; settings: TGFβ 1 ng/mL, 7 days, COV434 (FoxL2 wild-type)
Description: as §1

[1] = test system: bleomycin-induced lung fibrosis; assay: Bleomycin-induced lung fibrosis study; assay type: in vivo, mouse
From the text: Fibrosis, the formation of excess connective tissue causing stromal hardening and scar formation is a hallmark of cancer. Up to 20% of cancers are linked to chronic, inflammation-related fibrosis, including hepatocellular, gastric, esophageal, head and neck, colon, pancreatic, cervix, and vulvar cancers. The contribution of fibrosis for early cancer development remains unclear; however, in some advanced solid tumors it is believed that fibrotic tissues act like a barrier, preventing therapeutic agents like chemotherapy or biologics from penetrating the tumor tissue. Additionally, strong fibrotic tissue is thought to contribute to excluding immune cells from entering the tumor core, creating immune excluded or immune desert phenotypes. To evaluate the anti-fibrotic properties of Ex-11, a prophylactic model of bleomycin-induced lung fibrosis in male C57BL/6 mice was utilized, and various endpoints evaluated.
All mice in this study were 8-week-old male C57BL/6 mice purchased from Taconic. On Day −2 prior to bleomycin administration, all animals were weighed and distributed into groups with 10 mice each (Table 18) such that each group of animals contained animals of similar body weights.
On day 0, animals were treated with 1.5 U/kg bleomycin (Blenoxane catalog number NDC 61703-323-22, Hospira Pharmaceutical) intratracheally, except Group 1, which was administered normal saline via oropharyngeal route to serve as the healthy naïve control group. Prophylactic treatment was administered from one day prior to bleomycin administration to day 21 post bleomycin administration. On Day 21, only the morning dose was administered. Animals were harvested on day 21 and lung weights were measured. Body weights of all mice was recorded at least three times a week beginning on Day −2 and ending on the day of harvest, Day 21. Pirfenidone was used as positive control compound, as it is an FDA-approved drug for the treatment of idiopathic pulmonary fibrosis (IPF) in humans. All compounds were prepared in 10% Tween-20 in water; a homogenous suspension was formulated using a magnetic stir bar.
At the end of the study, total lung tissues were weighed and fixed for histological examination, which was conducted by a trained pathologist blinded to the treatment groups. Specifically, whole lungs from each mouse were paraffin-embedded in a single block. Two slides from each block were sectioned to the depth of the mainstem bronchi (near the center of each lobe) and stained with either hematoxylin and eosin (H&E) or Masson's trichrome (MT). Glass slides were evaluated using light microscopy by a board-certified veterinary pathologist. Lung sections were scored according to the methods described below, evaluating five randomly chosen fields in each tissue. Fixed lungs were sectioned, and consecutive tissue sections were stained with H&E or MT. Various pathological scoring parameters were used to determine the average Ashcroft score, as well as average inflammation and collagen deposition indicating fibrosis.
Parameter of scoring formalin fixed lung sections:
Modified Ashcroft Score: H&E-stained lung sections were scored according to the modified Ashcroft scale. Scores for five representative 200× microscopic fields per sample were averaged to obtain a mean score for each animal. […]

[2] = Description: Female, athymic nude mice (aged 6-8 weeks) were randomized to one of 12 study arms (n=3 per arm) (Table 16) and weighed prior to dosing. Mice were dosed via oral gavage either once daily (QD), or bi-daily (BID) for five days. […] The vehicle for PF-06952229 (PF) was 10% DMSO, 40% PEG300, 5% tween-80, 45% saline. For the vehicle alone group in this study, the PF-06952229 vehicle was used. At the end of each day for 10 days, mice were weighed, and symptoms of toxicity (if present) were recorded. A qualitative determination of overall toxicity was made based on the number and severity of symptoms for each cohort. The safety margin was determined at the end of day 10 based on the following equation: (maximum tolerated dose)/(minimum effective dose).
[3] = BID; in animal studies; cited from earlier work
[4] = test system: TGF-beta induced SMAD signaling; assay: RDSR (RD SMAD reporter) Cellular Reporter Assay; assay type: cell-based; settings: Homo sapiens; 200 pg/ml rhTGF-beta1, 24 h; control compounds; read-out: RDSR reporter activity
In short: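 Human rhabdomyosarcoma RD cells stably carrying an SBE-driven luc2P luciferase reporter. Inhibition of SMAD signaling was quantified from ONE-Glo luminescence.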

[5] = test system: TGF-β1 mediated alpha-SMA expression in primary human bronchial fibroblasts derived from IPF patients; assay: Fibroblast to Myofibroblast Transformation (FMT) assay
Description: To test the ability of compounds of the invention to inhibit the TGF-β1 dependent transition of fibroblasts to myofibroblasts in a relevant disease model of IPF, a study was carried out using an FMT assay employing lung fibroblasts from IPF patients. In this model the transition of fibroblasts to myofibroblasts is determined by the expression of the biomarker alpha smooth muscle actin (SMA).
Each drug concentration condition was evaluated in biological duplicates. One hour after compound addition, cells were stimulated with 1.25 ng/ml of TGF-01 and cultured for 72 hours thereafter. At the end of 72 hours cells were fixed using formaldehyde. The results were generated using high content imaging after staining cells using the nuclear stain DAPI as well as evaluation of the expression of alpha SMA. […] As a negative control 0.1% DMSO was used matching the DMSO concentration in treated wells.

Compound: TGFβ: TGFβ cytokine used at 1 ng/mL to stimulate KGN and COV434 cells
proliferation (Cell Titer Glo) (KGN cells): significantly increased | proliferation (Cell Titer Glo) (COV434 cells): no change

largest percent change in weight ([1]; group 4, day 9, average): −1.2%
Compound: Cc1ccc(=O)n(-c2ccccc2)c1 [pirfenidone, reference compound]
animals lost during the study ([1]; 100 mg/kg PO BID): Only one animal in the pirfenidone group was lost | total lung weight ([1]; day 21, vs bleomycin/vehicle): significant decrease in lung weight

Compound: CC(C)c1cnc(-c2cc(Cl)ccc2F)cc1Nc1ccncc1C(=O)NC(CO)CO [PF-06952229]
tolerated dose ([2]; BID): 50 mg/kg | dose at which mice experienced DLT ([2]; mouse, in vivo): ≥ 150 mg/kg | safety margin (maximum tolerated dose)/(minimum effective dose) ([2]; mouse, in vivo): ~1.7 fold | minimum effective dose [3]: 30 mg/kg

Compound: Cc1cccc(-c2[nH]c(CNc3ccccc3F)nc2-c2ccc3ncnn3c2)n1 [Vactosertib, reference compound]
pIC50 [4]: ~8.10 | safety margin (maximum tolerated dose)/(minimum effective dose) ([2]; female, mouse, in vivo, 10 days): 3.75-6 fold | LogM IC50 αSMA ([5]; donor IPF05): −7.4 LogM | Max PIN (%) ([5]; donor IPF05): 32.7% | LogM IC50 αSMA ([5]; donor IPF06): −7.0 LogM | Max PIN (%) ([5]; donor IPF06): 112.1% | LogM IC50 αSMA ([5]; donor IPF08): −7.1 LogM | Max PIN (%) ([5]; donor IPF08): 104.0%

Reference: patent US11746103B2, “ALK-5 inhibitors and uses thereof” (Sumitomo Pharma Oncology, Inc., priority 2020, dated 2023)
